From patent publication US5128369A, “Arylalkylamine derivatives” (Kyowa Hakko Kogyo Co., Ltd., priority 1989, dated 1992)
pIC50: −log10 of the molar value.

Legend:
[1] = system: tracheae (zig-zag strips from passively sensitized guinea pigs); test: passive Schultz-Dale reaction (bronchodilatory effects), relaxation of antigen-contracted tracheal strips; parameters: species or system guinea pig (male Hartley); details: Cavia porcellus; EWA (1 μg/ml)-induced contraction, guinea pig trachea, 37° C., cumulative addition; read-out: Bronchodilatory effect IC50 (concentration to produce 50% relaxation)
Protocol: Effects on passive Schultz-Dale reaction (bronchodilatory effects)
After 24 hours, the guinea pigs were stunned and exsanguinated, and then tracheae were removed. The zig-zag strips of the tracheae were prepared by the method of Emmerson, et al. [J. Pharm. […] After the contraction reached stable plateau, the compounds were cumulatively added in order to get concentration-relaxation curves.

PCA reaction = test: 48 hour-homologous passive cutaneous anaphylaxis (PCA) test in rats (antiallergic effects); assay type: in vivo, rat (male Wistar); parameters: key to Anti-PCA MED (minimum effective dosage): NE: no effect; details: rat, oral, 1 hour before PCA challenge, inhibition 50% or higher in at least one of three animals; for minimal effective dose: read-out: Anti-PCA MED (minimum effective dosage)
Protocol: Antiallergic effects: Antiallergic effects of compounds were studied by passive cutaneous anaphylaxis (PCA) test in rats. Male Wistar rats weighing 180 to 220 g were used for collection of antiserum and Male Wistar rats weighing 120 to 140 g for PCA test. (A) Preparation of anti-EWA serum in rat Anti-EWA rat serum was prepared by the method of Stotland, et al [Can. J. Physiol. Pharmacol., 52, 1114, (1974)] as follows. That is, 1 mg of EWA, 20 mg of aluminium hydroxide gel and 0.5 ml of mixed vaccine of pertussis, diphtheria and tetanus were mixed, and the mixture was subcutaneously injected in four foodpads of rats. After 14 days, the blood of sensitized rats was collected from the carotid artery. The serum was separated by centrifugation from collected blood, and stored at -80° C. The 48 hour homologous PCA titer of the serum was 1 :64. (B) Effects on 48 hour-homologous PCA tests in rats Three rats in each group were passively sensitized with 8 hold diluted anti-EWA serum (0.05 ml) intradermally injected in two sites of shaved dosal area of rats. After 47 hours, the test compound or its solvent (saline or CMC solution) was orally administrated, and 1 hour thereafter, PCA reaction was induced by intravenous administration of 1% Evan's blue in saline (0.5 ml/100 g) containing 2 mg of EWA. After 30 minutes, animals were sacrificed by bleeding and dorsal skin was stripped to determine the leakage of dye at blue spots, by the method of Katayama et al. [Microbiol. Immunol., 22, 89 (1978)]. The blue-dyed spots were dissected and placed in a test tube containing 1 ml of 1N sodium hydroxide and incubated at 37° C. for 48 hours. Then, 9 ml of a mixture of 0.6N phosphate:acetone (5:13) was added thereto. After shaking, the mixture was centrifuged at 2500 rpm for 10 minutes. A supernatant was separated, and extravasated dye in the supernatant was determined photometrically at 620 nm. Inhibition percent was calculated as follows: [formula]

dd-mice = test: Acute toxicity (minimum lethal dose); assay type: in vivo; details: male dd-mice, mortality for seven days
Protocol: The compounds were orally administrated (po) or intraperitoneally administrated (ip) to three male dd-mice weighing 20±1 g. Minimum lethal dose (MLD) was determined by observing the mortality for seven days after the administration.

SMILES | pIC50 [1] | minimal effective dose (PCA reaction) [mg/kg] | Acute Toxicity MLD ip (minimum lethal dose) (dd-mice) [mg/kg] | Acute Toxicity MLD po (minimum lethal dose) (dd-mice) [mg/kg] | Anti-PCA MED (minimum effective dosage) (PCA reaction)
CC(CC1OCCc2ccccc21)NCC(O)c1ccc(O)cc1 (centres unmarked) [Compound 1, 1-(4-Hydroxyphenyl)-2-[2-(isochroman-1-yl)-1-methylethylamino]ethanol] | 7.89 | 10 | > 100 | > 300 | –
CC(CC1OCCc2ccccc21)NC[C@H](O)c1ccc(O)cc1 (some centres unmarked) [Compound 2, (IR)-1-(4-hydroxyphenyl)-2-[2-(isochroman-1-yl)-1-methylethylamino]ethanol] | 9.21 | 10 | > 100 | > 300 | –
CC(CC1OCCc2ccccc21)NC[C@@H](O)c1ccc(O)cc1 (stereo partly drawn) [Compound 3, (1S)-1-(4-hydroxyphenyl)-2-[2-(isochroman-1-yl)-1-methylethylamine]ethanol] | 8.56 | – | – | – | NE
CC(CC1OCCc2ccccc21)NCC(O)c1ccccc1 (centres unmarked) [Compound 4, 2-[2-(Isochroman-1-yl)-1-methylethylamino]-1-phenylethanol] | 6.59 | 10 | 100 | 200 | –
CC(CC1OCCc2ccccc21)NC[C@H](O)c1ccccc1 (stereo partly drawn) [Compound 5, (1R)-2-[2-(Isochroman-1-yl)-1-methylethylamino]-1-phenylethanol] | 7.72 | 1 | 25 | 200 | –
CC(CC1OCCc2ccccc21)NC[C@@H](O)c1ccccc1 (stereo partly drawn) [Compound 6, (1S)-2-[2-(Isochroman-1-yl)-1-methylethylamino]-1-phenylethanol] | 4.92 | – | > 100 | 200 | NE
CC(CC1OCCc2ccccc21)NCC(O)c1cccc(O)c1 (centres unmarked) [Compound 7, 1-(3-Hydroxyphenyl)-2-[2-(isochroman-1-yl)-1-methylethylamino]ethanol] | 7.96 | 10 | 100 | 300 | –
CC(CC1OCCc2ccccc21)NCC(O)c1ccccc1O (centres unmarked) [Compound 8, 1-(2-Hydroxyphenyl)-2-[2-(isochroman-1-yl)-1-methylethylamino]ethanol] | 7.28 | – | 100 | 200 | NE
CC(CC1OCCc2ccccc21)NCC(O)c1cc(O)cc(O)c1 (centres unmarked) [Compound 9, 1-(3,5-Dihydroxyphenyl)-2-[2-(isochroman-1-yl)-1-methylethylamino]ethanol] | 8.93 | – | – | 200 | –
COc1ccc(C(O)CNC(C)CC2OCCc3ccccc32)cc1 (centres unmarked) [Compound 10, 2-[2-(Isochroman-1-yl)-1-methylethylamino]-1-(4-methoxyphenyl)ethanol] | 7.09 | 10 | 100 | 200 | –
CC(CC1OCCc2ccccc21)NCC(O)c1ccc(F)cc1 (centres unmarked) [Compound 16, 1-(4-Fluorophenyl)-2-[2-(isochroman-1-yl)-1-methylethylamino]ethanol] | 7.21 | – | > 100 | 300 | NE
CC(CC1OCCc2ccccc21)NCC(O)c1ccc(Cl)cc1 (centres unmarked) [Compound 17, 1-(4-Chlorophenyl)-2-[2-(isochroman-1-yl)-1-methylethylamino]ethanol] | 5.47 | 1 | 100 | 100 | –
CC(CC1OCCc2ccccc21)NCC(O)c1cccs1 (centres unmarked) [Compound 20, 2-[2-(Isochroman-1-yl)-1-methylethylamino]-1-thienylethanol] | 7.44 | – | > 100 | > 300 | NE
Oc1ccc(C(O)CNCCC2OCCc3ccccc32)cc1 (centres unmarked) [Compound 23, 1-(4-Hydroxyphenyl)-2-[2-(isochroman-1-yl)ethylamino]ethanol] | 8.06 | – | – | – | –
CC(CC1OCCc2ccccc21)NC(C)C(O)c1ccc(O)cc1 (centres unmarked) [Compound 24, 1-(4-Hydroxyphenyl)-2-[2-(isochroman-1-yl)-1-methylethylamino]-1-propanol] | 5.80 | – | > 100 | > 300 | NE
COC(CNC(C)CC1OCCc2ccccc21)c1ccc(O)cc1 (centres unmarked) [Compound 25, 2-(4-Hydroxyphenyl)-N-[2-(isochroman-1-yl)-1-methylethylamino]-2-methoxyethylamine] | 8.62 | – | – | – | NE
CC(CC1OCCc2ccccc21)NCC(O)Cc1ccccc1 (centres unmarked) [Compound 26, 1-[2-(Isochroman-1-yl)-1-methylethylamino]-3-phenyl-2-propanol] | 5.04 | – | – | – | NE
CC(CC1CCCc2ccccc21)NCC(O)c1ccc(O)cc1 (centres unmarked) [Compound 30, 1-(4-Hydroxyphenyl)-2-[2-(1,2,3,4-tetrahydro-1-naphthyl)-1-methylethylamino]ethanol] | 8.71 | 10 | > 100 | > 300 | –
CC(CC1c2ccccc2CCN1C)NCC(O)c1ccc(O)cc1 (centres unmarked) [Compound 31, 1-(4-Hydroxyphenyl)-2-[1-methyl-2-(2-methyl-1,2,3,4-tetrahydroisoquinolin-1-yl)ethylamino]ethanol] | 7.07 | – | > 100 | > 300 | NE
